# In patent US9040502B2, “Anti-XDR-TB drug, anti-MDR-TB drug, and combination anti-tuberculosis drug” (priority 2008, dated 2015):
# System: Mycobacterium tuberculosis XDR-TB (0306-0206)
# Type: cell-based
# Conditions: ratio method, concentrations as in Table 1
row,Compound,Resistance or sensitivity of M. tuberculosis XDR-TB (0306-0206) to the drug
1,"NNC(=O)c1ccncc1 [INH, isonicotinic acid hydrazide]",resistant
2,"[H]/N=C(/N)N[C@H]1[C@H](O)[C@@H](O)[C@H](O[C@@H]2O[C@@H](C)[C@](O)(C=O)[C@H]2O[C@@H]2O[C@@H](CO)[C@H](O)[C@@H](O)[C@@H]2NC)[C@@H](N/C(N)=N\[H])[C@@H]1O [SM, streptomycin]",resistant
3,"CCc1cc(C(N)=S)ccn1 [TH, ethionamide]",resistant
4,"CC[C@@H](CO)NCCN[C@@H](CC)CO [EB, ethambutol]",resistant
5,"Nc1ccc(C(=O)O)c(O)c1 [PAS, para-amino-salicylic acid]",resistant
6,enviomycin [EVM],resistant
7,"N[C@@H]1CON=C1O [CS, cycloserine]",sensitive
